One experiment relates to DLD-1. Description: MTS assay, DLD-1. Format: cell-based. Particulars: Homo sapiens, 72 hours, 1 Percent FBS. The method, then:
(§1) Cells were maintained at 37° C., 5% CO2 in DMEM media supplemented with 1% fetal bovine serum, penicillin/streptomycin and fungizone (Invitrogen). Cells were seeded into 96-well tissue culture plates at 3000 per well and cultured at 37° C. for 18 hours. Test compounds were dissolved and diluted to 300× in DMSO then diluted 1:40 in DMEM. Cells were incubated with test compounds for 72 hours followed by incubation with tetrazolium compound (3-(4,5-dimethylthiazol-2-yl)-5-(3-carboxymethoxyphenyl)-2-(4-sulfophenyl)-2H-tetrazolium, inner salt; MTS) and the electron coupling reagent, phenazine methosulfate (PMS) for 4 hours. […] The ability of compounds to inhibit cell growth in this assay is correlated with the reduction of dehydrogenase enzyme activity found in metabolically active cells. The measurement of the absorbance of the formazan was assessed using a Victor (Perkin Elmer) microplate reader at 492 nm. The calculated IC50 value is the concentration of the test compound that causes a 50% decrease in the absorbance.

The next experiment deals with MDA-MB-231. Nature of the experiment: MTS assay, MDA-MB-231. It is filed as cell-based. Particulars: Homo sapiens, 72 hours, 1 Percent FBS. Here is the method:
as §1
A general note: Formazan colour is commonly taken as a measure of viable cells.

In patent US8173808B2, “Substituted naphthalenyl-pyrimidine compounds” (ArQule, Inc., priority 2009, dated 2012) one finds inhibition data, which are given here for 30 compounds.

For orientation: inhibition means how much of the control response was suppressed. Low values mean a response near the control, high ones a response far below the control.

As for `COc1ccc2cc(-c3ccnc(NCCc4cccnc4)n3)cc(NC(=O)OC(C)(C)C)c2c1` [Compound 98, tert-butyl (7-methoxy-3-{2-[(2-pyridin-3-ylethyl)amino]pyrimidin-4-yl}-1-naphthyl)carbamate], the values for the inhibition at 10 µM with DLD-1 and in the experiment with MDA-MB-231 were 98% and 86%, respectively.
The compound `COc1cc(CCNc2nccc(-c3cc(N4CCOCC4)c4cc(OC)ccc4c3)n2)cc(OC)c1` [Compound 27, N-[2-(3,5-dimethoxyphenyl)ethyl]-4-(6-methoxy-4-morpholin-4-yl-2-naphthyl)pyrimidin-2-amine] yielded an inhibition at 10 µM in the experiment with DLD-1 of 87%.
Turning to `COc1ccc2cc(-c3ccnc(NCCc4ccc(OC)c(OC)c4)n3)cc(NC(=O)OC(C)(C)C)c2c1` [Compound 95, tert-butyl [3-(2-{[2-(3,4-dimethoxyphenyl)ethyl]amino}pyrimidin-4-yl)-7-methoxy-1-naphthyl]carbamate], the inhibition at 10 µM in the experiment with MDA-MB-231 was determined as 39%.
For `CNc1nccc(-c2cc(NC(=O)CN3CCN(CC(=O)N(C)C)CC3)c3cc(OC)ccc3c2)n1` [Compound 52, 2-{4-[2-({7-methoxy-3-[2-(methylamino)pyrimidin-4-yl]-1-naphthyl}amino)-2-oxoethyl]piperazin-1-yl}-N,N-dimethylacetamide], the inhibition at 10 µM worked out at 99% with DLD-1 and 96% with MDA-MB-231.
Taken in the same sequence, the figures for `CNc1nccc(-c2cc(NC3CCN(c4nc(C)cc(C(=O)OC)n4)CC3)c3cc(OC)ccc3c2)n1` [Compound 163, methyl 2-[4-({7-methoxy-3-[2-(methylamino)pyrimidin-4-yl]-1-naphthyl}amino)piperidin-1-yl]-6-methylpyrimidine-4-carboxylate] were 97% and 98%.
Taken in the same sequence, the figures for `CNc1nccc(-c2cc(NC(=O)CN3CCN(CCO)CC3)c3cc(OC)ccc3c2)n1` [Compound 38, 2-[4-(2-hydroxyethyl)piperazin-1-yl]-N-{7-methoxy-3-[2-(methylamino)pyrimidin-4-yl]-1-naphthyl}acetamide] were 98% and 98%.
For `COc1cc(CCNc2nccc(-c3cc(N4CCNCC4)c4cc(OC)ccc4c3)n2)cc(OC)c1` [Compound 132, N-[2-(3,5-dimethoxyphenyl)ethyl]-4-(6-methoxy-4-piperazin-1-yl-2-naphthyl)pyrimidin-2-amine], in that order: 97% and 98%.
Consider `COCCNc1nccc(-c2cc(NC(=O)OC(C)(C)C)c3cc(OC)ccc3c2)n1` [Compound 100, tert-butyl (7-methoxy-3-{2-[(2-methoxyethyl)amino]pyrimidin-4-yl}-1-naphthyl)carbamate], for which the inhibition at 10 µM in the experiment with DLD-1 was found to be 70%; with MDA-MB-231, 31%.
Compound `CNc1nccc(-c2cc(NC(=O)CN3CCN(Cc4ccc(Cl)cc4)CC3)c3cc(OC)ccc3c2)n1` [Compound 66, 2-[4-(4-chlorobenzyl)piperazin-1-yl]-N-{7-methoxy-3-[2-(methylamino)pyrimidin-4-yl]-1-naphthyl}acetamide] returned an inhibition at 10 µM in the experiment on DLD-1 of 69%.
Take `COc1ccc2cc(-c3ccnc(NCCc4ccccn4)n3)cc(N3CCNCC3)c2c1` [Compound 123, 4-(6-methoxy-4-piperazin-1-yl-2-naphthyl)-N-(2-pyridin-2-ylethyl)pyrimidin-2-amine]: the inhibition at 10 µM in the experiment on DLD-1 turned out to be 97%; in the experiment on MDA-MB-231 it was 98%.
Taken in the same sequence, the figures for `CCN1CCCC(Nc2nccc(-c3cc(N4CCOCC4)c4cc(OC)ccc4c3)n2)C1` (stereo not shown) [Compound 14, N-(1-ethylpiperidin-3-yl)-4-(6-methoxy-4-morpholin-4-yl-2-naphthyl)pyrimidin-2-amine] were 98% and 99%.
With `COc1ccc2cc(-c3ccnc(NCCc4cccc(OC)c4OC)n3)cc(NC(=O)OC(C)(C)C)c2c1` [Compound 94, tert-butyl [3-(2-{[2-(2,3-dimethoxyphenyl)ethyl]amino}pyrimidin-4-yl)-7-methoxy-1-naphthyl]carbamate], the values for the inhibition at 10 µM in the experiment with DLD-1 and with MDA-MB-231 were 37% and 35%, respectively.
On to `CNc1nccc(-c2cc(NC3CCN(c4cc(Cl)nc(C)n4)CC3)c3cc(OC)ccc3c2)n1` [Compound 162, 4-(4-{[1-(6-chloro-2-methylpyrimidin-4-yl)piperidin-4-yl]amino}-6-methoxy-2-naphthyl)-N-methylpyrimidin-2-amine], for which the inhibition at 10 µM with DLD-1 was 42%.
Consider `COc1ccc2cc(-c3ccnc(NC4CC(C)(C)N(C)C(C)(C)C4)n3)cc(NC(=O)OC(C)(C)C)c2c1` [Compound 103, tert-butyl (7-methoxy-3-{2-[(1,2,2,6,6-pentamethylpiperidin-4-yl)amino]pyrimidin-4-yl}-1-naphthyl)carbamate], for which the inhibition at 10 µM was 74% in the experiment on DLD-1 and 89% in the experiment with MDA-MB-231.
In turn, `COc1ccc2cc(-c3ccnc(NCCc4ccccn4)n3)cc(N3CCOCC3)c2c1` [Compound 19, 4-(6-methoxy-4-morpholin-4-yl-2-naphthyl)-N-(2-pyridin-2-ylethyl)pyrimidin-2-amine] had an inhibition at 10 µM in the experiment with DLD-1 of 30%.
The same measure, in the same setting: the same measure for `CNc1nccc(-c2cc(NC3CCN(c4ncnc5scc(C)c45)CC3)c3cc(OC)ccc3c2)n1` [Compound 160, 4-(6-methoxy-4-{[1-(5-methylthieno[2,3-d]pyrimidin-4-yl)piperidin-4-yl]amino}-2-naphthyl)-N-methylpyrimidin-2-amine]: 50%.
For the compound `COc1ccc2cc(-c3ccnc(NCc4cccc(C(F)(F)F)c4)n3)cc(NC(=O)OC(C)(C)C)c2c1` [Compound 90, tert-butyl [7-methoxy-3-(2-{[3-(trifluoromethyl)benzyl]amino}pyrimidin-4-yl)-1-naphthyl]carbamate], the inhibition at 10 µM with MDA-MB-231 came to 43%.
For `COc1ccc2cc(-c3ccnc(NCc4ccccn4)n3)cc(NC(=O)OC(C)(C)C)c2c1` [Compound 102, tert-butyl (7-methoxy-3-{2-[(pyridin-2-ylmethyl)amino]pyrimidin-4-yl}-1-naphthyl)carbamate], at 10 µM the inhibition in the experiment with DLD-1 was 43%.
Still for that read-out and setting: the result for `COc1ccc2cc(-c3ccnc(NCCc4cccc(OC)c4OC)n3)cc(N3CCOCC3)c2c1` [Compound 17, N-[2-(2,3-dimethoxyphenyl)ethyl]-4-(6-methoxy-4-morpholin-4-yl-2-naphthyl)pyrimidin-2-amine] reads 31%.
In the experiment on MDA-MB-231, `CNc1nccc(-c2cc(NC(=O)CNCCCN3CCN(C)CC3)c3cc(OC)ccc3c2)n1` [Compound 69, N-{7-methoxy-3-[2-(methylamino)pyrimidin-4-yl]-1-naphthyl}-N~2~-[3-(4-methylpiperazin-1-yl)propyl]glycinamide] returned an inhibition at 10 µM of 40%.
On to `COc1ccc2cc(-c3ccnc(NCc4ccc(OC)c(OC)c4)n3)cc(NC(=O)OC(C)(C)C)c2c1` [Compound 87, tert-butyl (3-{2-[(3,4-dimethoxybenzyl)amino]pyrimidin-4-yl}-7-methoxy-1-naphthyl)carbamate], for which, in the experiment with DLD-1, testing at 10 µM gave an inhibition of 45%.
Consider `CNc1nccc(-c2cc(NC(=O)CN3CCN(c4ccc(C(F)(F)F)cn4)CC3)c3cc(OC)ccc3c2)n1` [Compound 55, N-{7-methoxy-3-[2-(methylamino)pyrimidin-4-yl]-1-naphthyl}-2-{4-[5-(trifluoromethyl)pyridin-2-yl]piperazin-1-yl}acetamide], for which the inhibition at 10 µM with MDA-MB-231 is 65%.
On the same count and under the same terms, the result for `CNc1nccc(-c2cc(NC(=O)CN3CCN(CCCN4CCOCC4)CC3)c3cc(OC)ccc3c2)n1` [Compound 77, N-{7-methoxy-3-[2-(methylamino)pyrimidin-4-yl]-1-naphthyl}-2-[4-(3-morpholin-4-ylpropyl)piperazin-1-yl]acetamide] reads 41%.
With `CNc1nccc(-c2cc(NC3CCN(c4cc(N)ncn4)CC3)c3cc(OC)ccc3c2)n1` [Compound 156, 4-(4-{[1-(6-aminopyrimidin-4-yl)piperidin-4-yl]amino}-6-methoxy-2-naphthyl)-N-methylpyrimidin-2-amine], in the experiment on DLD-1, the inhibition at 10 µM was found to be 34%.
For `COc1ccc2cc(-c3ccnc(NCCc4ccccc4OC)n3)cc(N3CCOCC3)c2c1` [Compound 15, 4-(6-methoxy-4-morpholin-4-yl-2-naphthyl)-N-[2-(2-methoxyphenyl)ethyl]pyrimidin-2-amine], 10 µM produced 90% inhibition in the experiment on DLD-1.
On the same count and under the same terms, the result for `COc1ccc2cc(-c3ccnc(NCc4ccccc4C)n3)cc(N3CCOCC3)c2c1` [Compound 20, 4-(6-methoxy-4-morpholin-4-yl-2-naphthyl)-N-(2-methylbenzyl)pyrimidin-2-amine] reads 66%.
As for `CNc1nccc(-c2cc(NC(=O)CNc3ccncc3)c3cc(OC)ccc3c2)n1` [Compound 56, N-{7-methoxy-3-[2-(methylamino)pyrimidin-4-yl]-1-naphthyl}-N~2~-pyridin-4-ylglycinamide], in the experiment on MDA-MB-231, the inhibition at 10 µM is 50%.
On the same count and under the same terms, the same measure for `CNc1nccc(-c2cc(NC(=O)CN3CCN(c4ccncc4)CC3)c3cc(OC)ccc3c2)n1` [Compound 70, N-{7-methoxy-3-[2-(methylamino)pyrimidin-4-yl]-1-naphthyl}-2-(4-pyridin-4-ylpiperazin-1-yl)acetamide]: 37%.
For the compound `COc1ccc2cc(-c3ccnc(NCc4cccc(C(F)(F)F)c4)n3)cc(N3CCOCC3)c2c1` [Compound 13, 4-(6-methoxy-4-morpholin-4-yl-2-naphthyl)-N-[3-(trifluoromethyl)benzyl]pyrimidin-2-amine], in the experiment with DLD-1, testing at 10 µM gave an inhibition of 98%.
As to `COc1ccc2cc(-c3ccnc(NCCN(C)C)n3)cc(N3CCOCC3)c2c1` [Compound 8, N′-[4-(6-methoxy-4-morpholin-4-yl-2-naphthyl)pyrimidin-2-yl]-N,N-dimethylethane-1,2-diamine], in the experiment with MDA-MB-231, the inhibition at 10 µM was determined as 45%.
